Reference: patent US10300058B2, “Tyrosine kinase inhibitor and uses thereof” (Xuanzhu Pharma Co., Ltd., priority 2014, dated 2019)
Where two headings read alike, the source gives them in different places.

Assay: Pharmacokinetics in nude mouse
Assay type: in vivo
Conditions: female, BALB/c nude, plasma; for bioavailability: read-out: F (absolute bioavailability)
Description: Test animal: female nude mouse (BALB/c), weight: 20-25 g/mouse.
Solvent for intraveneous injection (iv): 5% DMSO+10% PEG400+85% (28% HP-β-CD)
Solvent for intragastric administration (po): 2% HPC+0.1% Tween 80
0.1283 mL and 0.1059 mL 1M hydrochloric acid solution were separately added to adjust pH to 4.
Compound 2, 27: Compound 27 (3.18 mg) and Compound 2 (3.17 mg) were weighed, respectively, and solvent for intraveneous injection was added to prepare a clear and transparent solution at a theoretical concentration of 1.0 mg/mL.
After homogeneous dispersion, a suspension at a theoretical concentration of 1.0 mg/mL was obtained.
Collection time point: 0.083 h, 0.25 h, 0.5 h, 1 h, 2 h, 4 h, 6 h, 8 h after administration.
60 μL whole blood was collected from intraocular canthus at each time point, and was centrifuged at 8000 r/min for 6 min in a low-temperature centrifuge to separate plasma; the plasma was stored in a refrigerator at −80° C.
The plasma sample of Compound 2 was analyzed by means of protein precipitation: 10 μL plasma was transferred to a 1.5 mL EP tube, 10 μL blank plasma was added, and the mixture was mixed homogeneously under vortexing. 200 μL internal standard (acetonitrile solution containing 25 ng/mL CNX-2006) was added; the resultant mixture was vortexted for 3 min, and then centrifuged at 12000 rpm for 5 min; 150 μL supernatant was accurately taken, to which 50 μL purified water was added. The resultant mixture was vortexed for 3 min and analyzed by LC-MS/MS.

[1] = po, 7.6 mg/kg, solid dispersed sample in pH 4.0 buffer

AUC(0-t) (iv, 5 mg/kg) [ng·h/mL]	clearance (iv, 5 mg/kg) [mL/min/kg]	AUC(0-t) (po, 10 mg/kg) [ng·h/mL]	bioavailability (po, 10 mg/kg) [%]	AUC(0-t) [1] [ng·h/mL]	bioavailability [1] [%]	SMILES
6300	13.2	5660	48			C=CC(=O)Nc1cccc(Nc2nc(Nc3ccc(C4CCN(C(C)=O)CC4)cc3OC)ncc2C(F)(F)F)c1 [Compound 2, N-(3-((2-((4-(1-acetylpiperidin-4-yl)-2-methoxyphenyl)amino)-5-(trifluoromethyl)pyrimidin-4-yl)amino)phenyl)acrylamide]
11600	7.17			9790	56	C=CC(=O)Nc1cccc(Nc2nc(Nc3ccc(C4CCN(S(C)(=O)=O)CC4)cc3OC)ncc2C(F)(F)F)c1 [Compound 27, N-(3-((2-((2-methoxy-4-(1-(methylsulfonyl)piperidin-4-yl)phenyl)amino)-5-(trifluoromethyl)pyrimidin-4-yl)amino)phenyl)acrylamide]
